Data: publication PMC8556396, “Statin-mediated disruption of Rho GTPase prenylation and activity inhibits respiratory syncytial virus infection” (Communications Biology, 2021)
“And” between values parts separate entries of the source, which are not always exact repeats. Identical values can stand only once. Counter-ions that a name gives are not always drawn.

Tests used:
RSV A2 [1] = assay: Immunofluorescence staining and microscopy of RSV F and N;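 on RSV N intensity (a.u.): fluorescence normalized to total nuclear count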
Procedure: HEp-2 cells were seeded to No. 1 glass coverslips (1014355117NR1, Thermo Fisher Scientific) for high-resolution confocal microscopy, or black, flat, microclear-bottom 96-well plates (655096, Greiner Bio-One) for high-throughput quantification of RSV F and N immunofluorescence. Cells were infected with RSV A2 (MOI 0.5). At 48 h p.i., cells were fixed in 4% paraformaldehyde for 30 min and permeabilized with 0.3% Triton X-100 for 10 min at room temperature. F and N proteins were probed using mouse anti-RSV F (RSV3216) and mouse anti-RSV N (RSV3132) mAbs (Bio-Rad Antibodies) diluted 1:500 in PBS + 0.1% Tween-20 (PBST), or mouse anti-RSV F mAb Alexa Fluor 488 conjugate (Millipore Sigma, 133/1H) diluted 1:200 in PBST over a 1-h incubation at room temperature. This was followed by detection with secondary anti-mouse Fab fragments conjugated to Alexa Fluor 488 (4408) or 647 (4410) (Cell Signaling Technology) diluted 1:1000 in PBST over a 1-h incubation at room temperature. Fluorescent images were acquired using either the Cellomics ArrayScan VTI HCS Reader at ×10 magnification (for quantification) or Olympus IX81 Spinning Disk Confocal microscope at ×60 magnification with oil immersion (for high-resolution images). F and N immunofluorescence was quantified in CellProfiler and normalized to total nuclear count.

RSV A2 [2] = assay: Western blot of total viral protein levels (pan-RSV antibody); type: cell-based, Respiratory syncytial virus; details: 24 h p.i.
Procedure: Prior studies in HEp-2 cells have shown that RSV mRNA and proteins can be detected 4–6 h p.i., while assembly is initiated roughly 10–12 h p.i., and mature viral filaments can be observed at the cell surface 16–18 h p.i.[26]–[28]. […] To verify this finding, a traditional plaque assay was performed to quantify infectious virus production from the supernatants of statin-treated RSV A2-infected HEp-2 cells. […] Lysates were also collected from RSV A2-infected HEp-2 cells (MOI 0.5) 24 h p.i. to probe viral protein expression by western blot. […] Changes to the expression and localization of the viral fusion glycoprotein (F) and nucleoprotein (N) were visualized by high-resolution confocal microscopy.
Box plots indicate the complete range (whiskers), interquartile range (box), and median (line) of measurements. […] Blots were stained using a pan-RSV polyclonal antibody (B65860G) that detects all viral antigens (see Supplementary Fig. 2). GAPDH controls were processed on a parallel blot with the same samples and protein load. Values are reported as means ± SEM (n = 3 cell lysates). d High-resolution confocal microscopy of the F (green) and N (magenta) proteins in RSV A2-infected HEp-2 cells (MOI 0.5). […] Scale bars = 20 µm. Statistics were calculated by a one-way ANOVA with a Dunnett’s multiple comparisons post hoc test (*P < 0.05, ***P < 0.001, ****P < 0.0001).
Supplementary Figure 2. Changes to viralprotein expression by statin or Rho GTPase inhibitor treatment. HEp-2 cells were infected with […]
post-viralexposure. Cell lysates were collected 24 h p.i.and viralprotein expression was probed using a pan-RSV polyclonal antibody (B65860G) which detects allviralantigens (n ≥2 cell lysates).GAPDH controlswere processed on parallelblots withthe same samples and protein load. […]

RSV-GFP [3] = type: cell-based, Respiratory syncytial virus
Procedure: WD-PNECs were cultured as per the referenced protocol. Using a sterile cytology brush, nasal scrapings were obtained from healthy volunteers with no known history of lung disease or respiratory medication use. Cells were then seeded on a collagen-coated flask and maintained in Bronchial Epithelial Cell Growth Medium (BEGM) (CC-3170, Lonza) or PneumaCult-Ex (05008, […] Technologies). Upon reaching 70% confluency, cells were passaged and seeded on collagen-coated transwell inserts (6.5 mm diameter, 0.4 µm pore size) (3413, Corning). An air–liquid interface was generated by removing media on the apical side of the cells and replacing the remaining media with PneumaCult-ALI media (05001, […] Technologies). By week 3, cells were differentiated with a ciliated phenotype. Transepithelial resistance was quantified using an ohmmeter (World Precision Instruments) to evaluate epithelial barrier function prior to experimentation. Cells were apically infected with RSV-GFP (MOI 0.01) and infection rates were quantified from GFP signal.

RSV-GFP [4] = assay: microbe, parasite or virus in culture; type: cell-based, Respiratory syncytial virus
Procedure, shortened: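 Cells infected with RSV-GFP (MOI 0.5) for 90 min in serum-free medium; library compounds added within 1 h of infection at 10 µM final (0.1% DMSO). At 48 h p.i., infection rate was imaged as fraction of nuclei within GFP area, with mean nuclear intensity and size serving as the viability measure.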

RSV-GFP [5] = assay: Time-of-drug addition assay; type: cell-based, Respiratory syncytial virus; details: for antiviral effect by time of addition: 3.5 µM; for RSV-GFP inhibition (% of maximum): MOI 2.0, read 24 h p.i.
Procedure: Time-of-drug addition assays are routinely used to assess the approximate stage of viral infection affected by a drug[25]. HEp-2 cells were seeded to black, flat, microclear-bottom 96-well plates (Greiner Bio-One) and infected with RSV-GFP (MOI 2.0). […]. RSV-GFP infection rates were quantified 24 h p.i to approximately capture a single cycle of infection.

RSV A2 [6] = assay: Quantification of infectious virus production (plaque assay); type: cell-based, Respiratory syncytial virus; details: Fig 3B; atorvastatin 3.5 uM, simvastatin 1.5 uM; supernatants of RSV A2-infected HEp-2; replicate values
Procedure: HEp-2 cells were seeded to six-well plates at a density of 1 × 10^6 cells per well and incubated overnight at 37 °C/5% CO2. The following morning, cells were infected with RSV A2 (MOI 1.0) and treated with drugs 2 h post-viral exposure. The supernatant, containing progeny virions, was collected 48 h p.i., snap frozen, and stored at −80 °C. Quantification of infectious virus particles was performed by a traditional plaque assay. HEp-2 cells were seeded to six-well plates at a density of 1.5 × 10^6 cells per well and grown to 90% confluency. Cells were incubated with serial dilutions of the collected supernatants for 90 min at 37 °C/5% CO2 under frequent agitation. The inoculant was then removed and replaced with 4 mL of 1:1 4% FBS DMEM-F12/1% agarose. Plates were incubated for 5 days at 37 °C/5% CO2. Cells were then fixed with 10% formalin for 30 min at room temperature. After fixation and removal of agarose from each well, the cells were stained with 0.05% neutral red and plaques were quantified under a dissecting microscope.

HEp-2 cells = assay: In vitro cytotoxicity assay (MTT); type: cell-based

CC(C)c1c(C(=O)Nc2ccccc2)c(-c2ccccc2)c(-c2ccc(F)cc2)n1CC[C@@H](O)C[C@@H](O)CC(=O)O [Atorvastatin, Atorvastatin calcium salt trihydrate]
RSV N intensity (a.u.) (RSV A2 [1]; Fig 5C, statin alone: atorvastatin 3.5 uM, simvastatin 1.5 uM): 0.7327 a.u. and 0.5028 a.u. and 0.4468 a.u. and 0.7381 a.u.
effect of atorvastatin co-treatment with CN04 (RSV A2 [1]; atorvastatin 3.5 µM with CN04 1.0 µM): negated the pro-viral effects of Rho GTPase activation
Total viral protein levels (GAPDH normalized) (RSV A2 [2]; MOI 0.5, atorvastatin 3.5 uM, simvastatin 1.5 uM, one value per lysate): 1.385 and 1.458 and 1.299
total viral protein levels by western blot (RSV A2 [2]; atorvastatin 3.5 µM, simvastatin 1.5 µM, EHT 1864 20.0 µM): decrease in total viral protein levels
reduction of RSV-GFP infection (RSV-GFP [3]; atorvastatin 5.0 µM, 72 h post-infection, mean ± SEM): 67.4 ± 11.5%
cellular viability of PNECs (RSV-GFP [3]; microscopic appearance and barrier integrity): Cellular viability remained intact
RSV inhibition in the screen (RSV-GFP [4]; HEp-2, RSV-GFP): inhibit RSV at low micromolar concentrations
inhibition at 10 µM (RSV-GFP [4]; human respiratory syncytial virus, HEp-2, read-out: RSV-GFP inhibition (%)): 56.4%
antiviral effect by time of addition (RSV-GFP [5]; added 8–22 h p.i.): loss in antiviral effect
antiviral effect by time of addition (RSV-GFP [5]; added 2 h pre-infection vs. 2–6 h post-infection): No difference in antiviral effect
RSV-GFP inhibition (% of maximum) (RSV-GFP [5]; atorvastatin 3.5 µM added 2 h p.i.): 93.8741 % of maximum and 100 % of maximum and 63.7076 % of maximum and 87.4617 % of maximum
RSV-GFP inhibition (% of maximum) (RSV-GFP [5]; atorvastatin 3.5 µM added 4 h p.i.): 79.9181 % of maximum and 67.4308 % of maximum and 95.7721 % of maximum and 95.1175 % of maximum
RSV-GFP inhibition (% of maximum) (RSV-GFP [5]; atorvastatin 3.5 µM added 6 h p.i.): 73.0198 % of maximum and 92.897 % of maximum and 83.1029 % of maximum and 75.3925 % of maximum
RSV-GFP inhibition (% of maximum) (RSV-GFP [5]; atorvastatin 3.5 µM added 8 h p.i.): 73.881 % of maximum and 38.0526 % of maximum and 68.6457 % of maximum and 56.4404 % of maximum
RSV-GFP inhibition (% of maximum) (RSV-GFP [5]; atorvastatin 3.5 µM added -2 h p.i.): 95.6726 % of maximum and 68.3345 % of maximum and 91.0474 % of maximum and 75.5348 % of maximum
Virus titre (log10 PFU/mL) (RSV A2 [6]): 4.38 log10 PFU/mL and 4.4624 log10 PFU/mL and 4.176 log10 PFU/mL and 4.322 log10 PFU/mL
cellular viability by MTT assay at EC50 (HEp-2 cells): no significant difference from baseline
doses with significant reduction in viability (HEp-2 cells; human): greater than 10.0 µM
